In ChEMBL document CHEMBL5385852, “Structural optimization and biological evaluation of 1-adamantylcarbonyl-4-phenylpiperazine derivatives as FXR agonists for NAFLD” (Eur J Med Chem, 2023):
Calls of active or inactive are those of the source. No cut-off for these calls is given here.

Key:
Mus musculus [1] = assay: Anti-hyperlipidemic activity in high fat diet induced obese C57BL/6J mouse model assessed as decrease in total cholesterol level at 200 mg/kg; type: functional, organism-based
Mus musculus [2] = assay: Anti-hyperlipidemic activity in high fat diet induced obese C57BL/6J mouse model assessed as decrease in hepatic low density lipoprotein cholesterol level at 200 mg/kg; type: functional, organism-based
Mus musculus [3] = assay: Anti-hyperlipidemic activity in high fat diet induced obese C57BL/6J mouse model assessed as decrease in hepatic total cholesterol level at 200 mg/kg; type: functional, organism-based
Mus musculus [4] = assay: Anti-hyperlipidemic activity in high fat diet induced obese C57BL/6J mouse model assessed as decrease in hepatic triglyceride level at 200 mg/kg; type: functional, organism-based
Mus musculus [5] = assay: Anti-hyperlipidemic activity in high fat diet induced obese C57BL/6J mouse model assessed as improvement in insulin sensitivity at 200 mg/kg by insulin tolerance test; type: functional, organism-based
Bile acid receptor = molecular target: T1, Bile acid receptor (Homo sapiens, UniProt Q96RI1); assay: Agonist activity at Gal4-fused FXR LBD (unknown origin) transfected in HEK293T cells co-transfected with Peak12-Gal4UAS-luciferase reporter assessed as receptor transactivation incubated for 24 hrs by firefly luciferase assay; type: cell-based
T1 sequence (Q96RI1 whole entry): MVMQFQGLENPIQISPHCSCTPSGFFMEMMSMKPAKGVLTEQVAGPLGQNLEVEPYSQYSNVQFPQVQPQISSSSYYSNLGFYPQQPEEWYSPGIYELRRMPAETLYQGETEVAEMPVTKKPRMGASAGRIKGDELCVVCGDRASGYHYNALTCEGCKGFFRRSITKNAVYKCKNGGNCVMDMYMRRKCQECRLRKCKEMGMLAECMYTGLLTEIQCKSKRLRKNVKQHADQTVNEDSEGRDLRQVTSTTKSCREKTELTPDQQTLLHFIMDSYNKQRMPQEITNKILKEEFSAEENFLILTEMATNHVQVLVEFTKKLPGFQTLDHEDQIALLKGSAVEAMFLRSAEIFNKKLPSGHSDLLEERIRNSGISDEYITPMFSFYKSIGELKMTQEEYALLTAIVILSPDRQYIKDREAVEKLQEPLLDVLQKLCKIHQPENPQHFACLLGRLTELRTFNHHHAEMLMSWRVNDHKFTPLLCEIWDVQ

| EC50 (Bile acid receptor) | Structure (SMILES) | Activity (Mus musculus [1]) | Activity (Mus musculus [2]) | Activity (Mus musculus [3]) | Activity (Mus musculus [4]) | Activity (Mus musculus [5]) |
| --- | --- | --- | --- | --- | --- | --- |
|  | Cc1ccc(Cl)cc1N1CCN(C(=O)C23CC4CC(CC(C4)C2)C3)CC1 | inactive | inactive | inactive | Active | inactive |
| 2.14 µM | O=C(N1CCN(c2cc(Cl)ccc2O)CC1)C12CC3CC(CC(C3)C1)C2 |  |  |  |  |  |
